Reference: US20140256555A1, “METHODS FOR TREATING FLOWERING PLANTS WITH RIBOSE” (RiboCor, Inc., priority 2013, published 2014)

What was measured:
[1] = tested on: flowering plants; experiment: Watering of house plants with D-ribose solution, observation of blooming; format: in vivo; conditions: 5 grams of D-ribose to one gallon of water, after MIRACLE-GRO was stopped
Excerpt: (§1) Plants treated with a solution of D-ribose in this example included Orchids, Christmas Cactus, Palm, Mother's-in-law Tongue/Snake Plant, Rosemary, Bamboo, Pothos, Hibiscus, Jade, Purple Passion, Aloe vera, Schefflera, Cacti, and Norfolk Island Pine.
(§2) The use of MIRACLE-GRO liquid plant food was stopped, then the use of a solution of D-ribose to treat the plants was started. Each week a fresh solution of D-ribose was made using 5 grams of D-ribose to one gallon of water.
Specific observations are noted below. While all the plants were extremely healthy and grew exceptionally well, traditional flowering varieties performed amazingly well.

[2] = tested on: Orchids; experiment: Watering with D-ribose solution, blooming of orchids; format: in vivo; conditions: 5 grams of D-ribose to one gallon of water
Excerpt: as §1, §2
The first subject was an orchid which had not bloomed in six plus years.

[3] = tested on: Christmas Cactus; experiment: Watering with D-ribose solution, blooming of Christmas Cactus; format: in vivo; conditions: typically blooms only around Christmas and Easter; 5 grams of D-ribose to one gallon of water
Excerpt: as §1, §2
This variety of plant typically only blooms around the Christmas and Easter holidays each year for a few weeks up to a month or so, then it stops blooming.

[4] = tested on: Hibiscus; experiment: Watering with D-ribose solution, blooming of Hibiscus; format: in vivo; conditions: indoors for the winter months; 5 grams of D-ribose to one gallon of water
Excerpt: as §1, §2
This plant was taken inside in October for the winter months.

[5] = tested on: Palm; experiment: Watering with D-ribose solution, blooming of Palm; format: in vivo; conditions: plant had not bloomed in approximately fifteen years; 5 grams of D-ribose to one gallon of water
Excerpt: as §1, §2
This is typically regarded as a non-flowering type of plant. This plant had not bloomed in approximately fifteen years.

[6] = tested on: Snake Plant; experiment: Watering with D-ribose solution, blooming of Snake Plant; format: in vivo, Mother's-in-law Tongue/Snake Plant; conditions: had not bloomed in over 15 years, indoor plant; 5 grams of D-ribose to one gallon of water
Excerpt: as §1, §2
This is another example of plant typically regarded as a non-flowering type plant. […] It had not bloomed in over 15 years. While flowers on this plant are not unheard of, it is uncommon to bloom in the Minnesota climate and as an indoor plant.

[7] = tested on: Purple Waffle; experiment: Growth of Purple Waffle plants over a 9 month period with weekly feeding; format: in vivo; conditions: 1× (1.5 mg/ml) or 2× (3 mg/ml) D-ribose weekly, versus control and MIRACLE-GRO fed plant
Method: The growth of four plants was observed over a 9 month period. One plant was not fed (control), but watered weekly. One plant was fed MIRACLE-GRO liquid plant food weekly based on product instructions of feeding every time you water by squeezing 10-20 drops into 1 quart of water. One plant was fed 1× (1.5 mg/ml) D-ribose weekly. One plant was fed 2× (3 mg/ml) D-ribose weekly.

For O=C[C@H](O)[C@H](O)[C@H](O)CO [D-ribose], the “blooming observed in treated plants” value [1] was “Sustained blooming in many of the flowering plants”, the “blooming, first orchid” value ([2]; orchid which had not bloomed in six plus years) was “sparked two new stems full of blooms” and the “blooming, second orchid” value ([2]; orchid which had not bloomed in three plus years) was “showed the same results as subject one”. For the same molecule, the blooming [3] was “started to bloom early and sustained an abundance of continued blooms”, the blooming [4] was “continuously bloomed” and the “blooming / flowering growth” value [5] was “grew an unusual type of growth that appeared to be a flowering/seed mechanism on two different stems”. For the same molecule, the “blooming / flowering growth” value [6] was “grew unusual growths that appeared to be some type of flowering appendage” and the branching [7] was “increased branching compared to both the control and the MIRACLE-GRO fed plant”.
